Reference: patent US8952024B2, “Herbicidal pyrimidone derivatives” (E I du Pont de Nemours and Company, priority 2009, dated 2015)

What was measured:
Test in all cases: Test B pre-/postemergence plant response
Format in all cases: in vivo
[1] = tested on: Italian ryegrass (Lolium multiflorum)
Excerpt: (§1) Seeds of plant species selected from blackgrass (Alopecurus myosuroides), downy bromegrass (Bromus tectorum), green foxtail (Setaria viridis), Italian ryegrass (Lolium multiflorum), wheat (Triticum aestivum), wild oat (Avena fatua), deadnettle (henbit deadnettle, Lamium amplexicaule), galium (catchweed bedstraw, Galium aparine), bermudagrass (Cynodon dactylon), Surinam grass (Brachiaria decumbens), cocklebur (Xanthium strumarium), corn (Zea mays), large crabgrass (Digitaria sanguinalis), woolly cupgrass (Eriochloa villosa), giant foxtail (Setaria faberii), goosegrass (Eleusine indica), johnsongrass (Sorghum halepense), kochia (Kochia scoparia), lambsquarters (Chenopodium album), morningglory (Ipomoea coccinea), nightshade (eastern black nightshade, Solanum ptycanthum), yellow nutsedge (Cyperus esculentus), pigweed (Amaranthus retroflexus), ragweed (common ragweed, Ambrosia elatior), Russian thistle (Salsola kali), soybean (Glycine max), sunflower (common oilseed sunflower, Helianthus annuus) and velvetleaf (Abutilon theophrasti) were planted into a blend of loam soil and sand and treated preemergence with test compounds formulated in a non-phytotoxic solvent mixture which included a surfactant.
(§2) At the same time, plants selected from these crop and weed species and also winter barley (Hordeum vulgare), canarygrass (Phalaris minor), chickweed (Stellaria media) and windgrass (Apera spica-venti) were planted in pots containing Redi-Earth® planting medium (Scotts Company, 14111 Scottslawn Road, Marysville, Ohio 43041) comprising spaghnum peat moss, vermiculite, wetting agent and starter nutrients and treated with postemergence applications of some of the test chemicals formulated in the same manner. Plants ranged in height from 2 to 18 cm (1- to 4-leaf stage) for postemergence treatments.
(§3) Treated plants and controls were maintained in a greenhouse for 13 to 15 days, after which time all treated plants were visually evaluated and compared to controls. Plant response ratings, summarized in Table B, are based on a scale of 0 to 100 where 0 is no effect and 100 is complete control. A dash (-) response means no test result.

[2] = tested on: bermudagrass (Cynodon dactylon)
Excerpt: as §1, §2, §3

[3] = tested on: cocklebur (Xanthium strumarium)
Excerpt: as §1, §2, §3

[4] = tested on: downy bromegrass (Bromus tectorum)
Excerpt: as §1, §2, §3

[5] = tested on: kochia (Kochia scoparia)
Excerpt: as §1, §2, §3

[6] = tested on: large crabgrass (Digitaria sanguinalis)
Excerpt: as §1, §2, §3

[7] = tested on: morningglory (Ipomoea coccinea)
Excerpt: as §1, §2, §3

[8] = tested on: soybean (Glycine max)
Excerpt: as §1, §2, §3

[9] = tested on: velvetleaf (Abutilon theophrasti)
Excerpt: as §1, §2, §3

[10] = tested on: wheat (Triticum aestivum)
Excerpt: as §1, §2, §3

[11] = tested on: woolly cupgrass (Eriochloa villosa)
Excerpt: as §1, §2, §3

[12] = tested on: yellow nutsedge (Cyperus esculentus)
Excerpt: as §1, §2, §3

[13] = 31 g ai/ha, postemergence, scale 0 to 100, 0 is no effect, 100 is complete control
[14] = Postemergence, 62 g ai/ha, scale 0 (no effect) to 100 (complete control), 13 to 15 days
[15] = Postemergence, 125 g ai/ha, visual rating after 13 to 15 days, scale 0 (no effect) to 100 (complete control)
[16] = Postemergence, 250 g ai/ha, scale 0 to 100 (0 no effect, 100 complete control)
[17] = Preemergence, 31 g ai/ha, scale 0 to 100 (0 no effect, 100 complete control)
[18] = Preemergence, 62 g ai/ha, scale 0 to 100 (0 no effect, 100 complete control)
[19] = Preemergence, 125 g ai/ha, scale 0 to 100, 0 no effect, 100 complete control
[20] = 250 g ai/ha, Preemergence, 0 to 100 scale

Cc1cc(-n2c(-c3ccccc3)ncc(C(=O)C3=C(O)CCCC3=O)c2=O)ccc1F [Compound 53]
98: Plant response rating, Bermudagrass [2, 15] | Plant response rating, Bermudagrass [2, 16] | Plant response rating, Morningglory [7, 16] | Plant response rating, Velvetleaf [9, 16] | Plant response rating, Velvetleaf [9, 18] | Plant response rating, Velvetleaf [9, 19] | Plant response rating, Cupgrass, Woolly [11, 16]
50: Plant response rating, Bromegrass, Downy [4, 14] | Plant response rating, Wheat [10, 16]
0: Plant response rating, Ryegrass, Italian [1, 13] | Plant response rating, Ryegrass, Italian [1, 17] | Plant response rating, Ryegrass, Italian [1, 18] | Plant response rating, Ryegrass, Italian [1, 19] | Plant response rating, Bromegrass, Downy [4, 17] | Plant response rating, Bromegrass, Downy [4, 18] | Plant response rating, Morningglory [7, 17] | Plant response rating, Soybean [8, 17] | Plant response rating, Wheat [10, 17] | Plant response rating, Wheat [10, 18] | Plant response rating, Wheat [10, 19] | Plant response rating, Cupgrass, Woolly [11, 17]
75: Plant response rating, Kochia [5, 15] | Plant response rating, Crabgrass, Large [6, 17] | Plant response rating, Morningglory [7, 14] | Plant response rating, Nutsedge, Yellow [12, 15] | Plant response rating, Nutsedge, Yellow [12, 16]
55: Plant response rating, Bromegrass, Downy [4, 15] | Plant response rating, Morningglory [7, 13] | Plant response rating, Cupgrass, Woolly [11, 18]
40: Plant response rating, Ryegrass, Italian [1, 15]
10: Plant response rating, Cocklebur [3, 17]
25: Plant response rating, Morningglory [7, 19] | Plant response rating, Wheat [10, 14]
85: Plant response rating, Cocklebur [3, 14] | Plant response rating, Cocklebur [3, 15] | Plant response rating, Crabgrass, Large [6, 13] | Plant response rating, Velvetleaf [9, 13] | Plant response rating, Velvetleaf [9, 14] | Plant response rating, Cupgrass, Woolly [11, 19]
70: Plant response rating, Cocklebur [3, 20] | Plant response rating, Soybean [8, 18]
30: Plant response rating, Bromegrass, Downy [4, 20] | Plant response rating, Wheat [10, 15]
95: Plant response rating, Bermudagrass [2, 14] | Plant response rating, Crabgrass, Large [6, 14] | Plant response rating, Crabgrass, Large [6, 15] | Plant response rating, Soybean [8, 14] | Plant response rating, Soybean [8, 15] | Plant response rating, Soybean [8, 16] | Plant response rating, Velvetleaf [9, 15] | Plant response rating, Cupgrass, Woolly [11, 20] | Plant response rating, Cupgrass, Woolly [11, 15]
90: Plant response rating, Bermudagrass [2, 13] | Plant response rating, Cocklebur [3, 16] | Plant response rating, Soybean [8, 13] | Plant response rating, Cupgrass, Woolly [11, 14] | Plant response rating, Nutsedge, Yellow [12, 19]
100: Plant response rating, Bermudagrass [2, 20] | Plant response rating, Bermudagrass [2, 18] | Plant response rating, Bermudagrass [2, 19] | Plant response rating, Crabgrass, Large [6, 20] | Plant response rating, Crabgrass, Large [6, 16] | Plant response rating, Crabgrass, Large [6, 18] | Plant response rating, Crabgrass, Large [6, 19]
20: Plant response rating, Cocklebur [3, 18] | Plant response rating, Morningglory [7, 18] | Plant response rating, Wheat [10, 13] | Plant response rating, Nutsedge, Yellow [12, 13]
65: Plant response rating, Cocklebur [3, 19] | Plant response rating, Kochia [5, 14] | Plant response rating, Cupgrass, Woolly [11, 13] | Plant response rating, Nutsedge, Yellow [12, 14] | Plant response rating, Nutsedge, Yellow [12, 17]
35: Plant response rating, Bromegrass, Downy [4, 13]
45: Plant response rating, Ryegrass, Italian [1, 16] | Plant response rating, Kochia [5, 13]
80: Plant response rating, Cocklebur [3, 13] | Plant response rating, Kochia [5, 16] | Plant response rating, Morningglory [7, 15] | Plant response rating, Soybean [8, 19] | Plant response rating, Velvetleaf [9, 17] | Plant response rating, Nutsedge, Yellow [12, 18]
60: Plant response rating, Bromegrass, Downy [4, 16]
5: Plant response rating, Ryegrass, Italian [1, 14] | Plant response rating, Bromegrass, Downy [4, 19]

Cn1c(-c2ccccc2)ncc(C(=O)C2=C(O)CCCC2=O)c1=O [Compound 55]
100: Plant response rating, Bermudagrass [2, 20] | Plant response rating, Bermudagrass [2, 19] | Plant response rating, Velvetleaf [9, 16] | Plant response rating, Velvetleaf [9, 19]
95: Plant response rating, Bermudagrass [2, 17] | Plant response rating, Crabgrass, Large [6, 19]
85: Plant response rating, Bermudagrass [2, 15] | Plant response rating, Kochia [5, 16] | Plant response rating, Crabgrass, Large [6, 16] | Plant response rating, Morningglory [7, 16]
60: Plant response rating, Cocklebur [3, 14] | Plant response rating, Crabgrass, Large [6, 13] | Plant response rating, Crabgrass, Large [6, 18] | Plant response rating, Morningglory [7, 14] | Plant response rating, Soybean [8, 14] | Plant response rating, Soybean [8, 15]
15: Plant response rating, Cocklebur [3, 20] | Plant response rating, Soybean [8, 19] | Plant response rating, Cupgrass, Woolly [11, 15]
25: Plant response rating, Soybean [8, 13]
98: Plant response rating, Bermudagrass [2, 18] | Plant response rating, Crabgrass, Large [6, 20] | Plant response rating, Velvetleaf [9, 14] | Plant response rating, Velvetleaf [9, 15] | Plant response rating, Velvetleaf [9, 18]
0: Plant response rating, Ryegrass, Italian [1, 13] | Plant response rating, Ryegrass, Italian [1, 14] | Plant response rating, Ryegrass, Italian [1, 15] | Plant response rating, Ryegrass, Italian [1, 16] | Plant response rating, Ryegrass, Italian [1, 17] | Plant response rating, Ryegrass, Italian [1, 18] | Plant response rating, Ryegrass, Italian [1, 19] | Plant response rating, Cocklebur [3, 17] | Plant response rating, Bromegrass, Downy [4, 13] | Plant response rating, Bromegrass, Downy [4, 20] | Plant response rating, Bromegrass, Downy [4, 14] | Plant response rating, Bromegrass, Downy [4, 15] | Plant response rating, Bromegrass, Downy [4, 16] | Plant response rating, Bromegrass, Downy [4, 17] | Plant response rating, Bromegrass, Downy [4, 18] | Plant response rating, Bromegrass, Downy [4, 19] | Plant response rating, Morningglory [7, 17] | Plant response rating, Morningglory [7, 18] | Plant response rating, Soybean [8, 17] | Plant response rating, Soybean [8, 18] | Plant response rating, Wheat [10, 13] | Plant response rating, Wheat [10, 14] | Plant response rating, Wheat [10, 17] | Plant response rating, Wheat [10, 18] | Plant response rating, Wheat [10, 19] | Plant response rating, Cupgrass, Woolly [11, 17] | Plant response rating, Cupgrass, Woolly [11, 18] | Plant response rating, Cupgrass, Woolly [11, 19] | Plant response rating, Nutsedge, Yellow [12, 17]
55: Plant response rating, Morningglory [7, 13] | Plant response rating, Cupgrass, Woolly [11, 20] | Plant response rating, Nutsedge, Yellow [12, 15]
75: Plant response rating, Cocklebur [3, 16] | Plant response rating, Kochia [5, 15] | Plant response rating, Crabgrass, Large [6, 14] | Plant response rating, Morningglory [7, 15] | Plant response rating, Soybean [8, 16] | Plant response rating, Velvetleaf [9, 17]
20: Plant response rating, Kochia [5, 13] | Plant response rating, Cupgrass, Woolly [11, 16]
5: Plant response rating, Wheat [10, 15]
65: Plant response rating, Cocklebur [3, 15] | Plant response rating, Kochia [5, 14] | Plant response rating, Nutsedge, Yellow [12, 16]
80: Plant response rating, Bermudagrass [2, 13] | Plant response rating, Bermudagrass [2, 14] | Plant response rating, Crabgrass, Large [6, 15]
10: Plant response rating, Cocklebur [3, 18] | Plant response rating, Cocklebur [3, 19] | Plant response rating, Crabgrass, Large [6, 17] | Plant response rating, Wheat [10, 16] | Plant response rating, Cupgrass, Woolly [11, 13] | Plant response rating, Cupgrass, Woolly [11, 14] | Plant response rating, Nutsedge, Yellow [12, 13] | Plant response rating, Nutsedge, Yellow [12, 14]
90: Plant response rating, Bermudagrass [2, 16] | Plant response rating, Velvetleaf [9, 13]
45: Plant response rating, Cocklebur [3, 13] | Plant response rating, Morningglory [7, 19] | Plant response rating, Nutsedge, Yellow [12, 18] | Plant response rating, Nutsedge, Yellow [12, 19]
